Test results from a melting point compilation (Tetko et al.; mined from patent text by program, amines drawn as free bases though some values may be those of a salt).

SMILES	melting point
Cc1nc(-c2ccc3cnc(Nc4ccc(N5CCN(C)CC5)cc4)nn23)cn1C	242 to 244 °C
CN(C(=O)c1ccc2nonc2c1)C1CCN(S(C)(=O)=O)CC1	177 to 179 °C
S=C1CN=C(c2ccccc2Cl)c2cc(CCc3ccc(-c4ccccc4)cc3)sc2N1	187 to 189 °C
CCOC(C)=NNc1ccc([N+](=O)[O-])cc1	102 °C
COc1ccc(C(=O)C=CC(=O)O)c(OC)c1OC	100 °C
Cc1ccccc1C(O)c1nnn[nH]1 (racemic)	124 to 126 °C
COc1ccc(Oc2nccnc2Cl)cc1	62 to 64 °C
CC(C)(C)Nc1c(NCc2ccccc2F)c(=O)c1=O	260 to 262 °C
CC1(C)C(Cl)C(=O)C1CC(Br)(Br)Br (stereo unspecified)	87 to 89 °C
O=C(NCCc1ccccc1)c1ccccc1I	125 to 126 °C
Cc1nnc2ccc(-c3ccc(C(C)(C)C)cc3)nn12	142 to 145 °C
Clc1ccc2c(c1)C(Cl)c1ccccc1CO2 (stereo unspecified)	125 to 127 °C
Nc1ccc(Cl)cc1C(=O)C(F)(F)F	93 to 94 °C
O=C(NC1CCc2ccccc2CC1=O)OCc1ccccc1 (stereo unspecified)	119 to 121 °C
O=C(OCCO)c1ccc(C(=O)OCCO)cc1	108 to 110 °C
O=[N+]([O-])c1ccc(NCCNS(=O)(=O)c2ccccc2)cc1	171 °C
CNC(CSCC(=O)c1ccc2[nH]c3ncc(Cl)cc3c2c1)NC	176 to 177 °C
CCCOc1ccc2c(c1)C(c1ccc(OC)cc1OCc1ccccc1)=C(C(=O)OC)[C@H]2c1ccc2c(c1)OCO2	114 to 117 °C
OC/C(=C/c1ccccc1)c1cccs1	64 to 65 °C
O=C(NCCNCC(O)COc1ccc(OCCOCC2CC2)cc1)N1CCOCC1 (stereo unspecified)	80 to 81 °C
Cc1oc(-c2ccccc2)nc1CCc1ccc(CCCCCC2OC(=O)NC2=O)cc1 (stereo unspecified)	116 to 117 °C
CS(=O)(=O)C(=C1CN(C(c2ccccc2)c2ccccc2)C1)c1cccc(N)c1	197 °C
CCCc1nc2c(N)nc3cc(OCc4cccc([N+](=O)[O-])c4)ccc3c2n1CC(C)C	175 to 176 °C
COc1cc(N)c(Cl)cc1C(=O)NCC1CCN(CCCCCOc2ccccc2)CC1	129 to 132 °C
ON=C1CCC(C2CCCC2)=C1c1ccc(F)cc1	204 to 205 °C
O=Cc1ccc(OC2CCN(c3ccccn3)CC2)cc1	114 to 116 °C

SMILES	melting point
Cc1sc(-c2ccccc2)nc1COc1ccc(COc2ncccc2CC#N)cc1	161 to 162 °C
CCOc1c([C@@H]2C[C@H]2C=O)cc(C(C)(C)C)cc1C(C)(C)C (racemic)	123 to 126 °C
COc1cccc([C@H]2O[C@H](CC(=O)Nc3cc4c(c(CCC(=O)O)c3)CCCC4)C(=O)N(CC(C)(C)CO)c3ccc(Cl)cc32)c1OC	160 to 162 °C
Cn1cc(S(C)=O)c(=O)c2scc(-c3ccccc3)c21 (stereo unspecified)	206 to 209 °C
COc1ccc(-c2cccc3nc(Nc4cc(OC)c(OC)c(OC)c4)oc23)cn1	192 to 193 °C
COC(=O)c1ccc(C(=O)NCc2cc(OC)cc(OC)c2)cc1Cl	101 to 103 °C
CC(=O)NC1=NN(c2cccc(C)c2)CC1	222 to 225 °C
NCc1cccc(-c2cnc(-c3ccc(Cl)c(Cl)c3)[nH]2)c1	> 250 °C
O=C1O[C@@H]2C[C@@]1(O)c1cc(Cc3ccccc3)sc1[C@H]2O	116 to 118 °C
NS(=O)(=O)c1ccc(-c2ccccc2-c2ccc(Cl)cc2)cc1	206 to 207 °C
COC(=O)C=Cc1ccc(-c2ccc(O)cc2)cc1	233 to 235 °C
CNC(=O)c1ccccc1N=C(NC(=O)c1ccccc1)SC	193 to 195 °C
CC(C)(C)c1ccc(CC(=O)CCC2CCCCC2)cc1NC(=O)CC1c2ccccc2Oc2ccccc21	134 to 135 °C
CNC(=O)ON=C1n2ccnc2S(=O)C1(C)C (stereo unspecified)	148 to 149 °C
C[C@H](Cc1cc2c(c(C(N)=O)c1)N(CCCCO)CC2)NCCOc1ccccc1OCC(F)(F)F	116 to 118 °C
Cc1cc(=O)c(Oc2ccc(F)cc2F)c(-c2ccc(S(C)=O)cc2)o1 (stereo unspecified)	158 to 159 °C
Cc1ncc([N+](=O)[O-])n1CCN1C(=O)NC(c2ccccc2)(c2ccccc2)C1=O	209 to 210 °C
N#Cc1nc(Cl)c(Cl)[nH]1	187 to 189 °C
COCCN(C)C(=O)COc1cc(-c2ccc(C)cc2)nc2cccc(C(F)(F)F)c12	116 °C
COc1ccc(C(=O)Nc2ccc(F)cc2)cc1NC(=S)Nc1ccc(C(=O)O)cc1	203 to 205 °C
Cc1c(O)cccc1C1=N[C@H]([C@H](O)CN2C[C@H]3CCCC[C@H]3C[C@H]2C(=O)NC(C)(C)C)CO1	240 °C
COC(=O)c1c(OCc2ccccc2)ccc2c1CC[C@@H](NC(C)=O)[C@@H]2OC(C)=O (relative stereo)	171 to 172 °C
CCOC(=O)C1=C(COCCOc2ncccn2)NC(C)=C(C(=O)OC)C1c1ccccc1Cl (stereo unspecified)	101 °C
Cn1cnc(COc2nn3c(-c4ccc(F)cc4)nnc3cc2-c2ccsc2)n1	254 to 255 °C
Cn1c(=O)[nH]c2ccsc2c1=O	260 to 262 °C
COc1ccc(-c2nn(Cc3ccncc3)c(=O)cc2-c2ccc(Cl)cc2)cc1	142 to 143 °C

SMILES	melting point
O=C1NCCN1Cc1ccncc1	153 to 155 °C
CC(C)[C@@H]1CC[C@@H](C)C[C@H]1OC(=O)N1C(=O)O[C@@H](C(F)(F)F)[C@@H]1C(C)C	80 to 82 °C
Cc1ccc(C(=O)NN2CCOCC2)c(Nc2ccc3cn[nH]c3c2)n1	265 to 268 °C
CN1C(=O)CC[C@]2(C)c3ccc(Sc4nc5c(F)cccc5s4)cc3CC[C@@H]12	140 to 145 °C
CCn1c(=O)ccc2cnc(Nc3ccccc3)nc21	203 to 204 °C
Nc1cccnc1Nc1ccccc1C(=O)c1cccc(F)c1	135 to 137 °C
CC(C)(C)n1nc2c(=O)[nH]c3ccccc3c2c1CO	295 to 297 °C
COc1ccc(Cl)cc1C(=O)NC1COc2cc(OC)c(S(=O)(=O)NC(=O)NC(C)C)cc2C1 (stereo unspecified)	181 to 183 °C
Nc1c(CCO)cccc1C(O)c1ccccc1 (stereo unspecified)	101 °C
O=C(Nc1nnc(COc2ccccc2Cl)s1)c1ccc2c(c1)CCN(C(=O)CO)C2	133 to 135 °C
O=C1NC(c2ccccc2)CN1CCO (stereo unspecified)	60 to 63 °C
COC(=O)c1ccc(-c2ccccc2CBr)cc1	80 to 81 °C
CCOC(=O)c1cccc(-c2nc(-c3ccc(C)c(C)c3)cs2)c1	114 to 115 °C
CC(C)(Cc1ccc2oc(-c3nc(C(C)(C)C)cs3)cc2c1)C(=O)O	155 to 157 °C
N#Cc1c2ccccc2cc2c1sc1cccc(-c3cc(Br)c(OCC(=O)O)c(Br)c3)c12	259 to 261 °C
O=C1Nc2ccccc2C12COc1c2ccc2c1OCCO2 (stereo unspecified)	> 250 °C
OC[C@@H]1CCCN1Cc1cc2cc3c(cc2c2cc(OCc4ccccc4)ccc12)OCO3	122 to 124 °C
Cn1c2ccc(Cl)cc2c(=O)n2nc(C(N)=O)cc12	> 360 °C
CS(=O)(=O)NCc1cc(-c2ccccc2)c2c(n1)OCCN(Cc1cc(C(F)(F)F)cc(C(F)(F)F)c1)C2=O	194 to 195 °C
C#CCOc1ccc2ccccc2c1COC(=O)C1CC1	68 to 73 °C
C[C@H]1CCCC(C)(C)[C@@H]1[C@@H](O)c1ccc(Cl)c(F)c1	61.1 to 63.6 °C
Cc1nc(C(Cl)(Cl)Cl)nc(OC(=O)C(Cl)(Cl)Cl)c1Cl	92 °C
C=Cc1cc(CNC(=O)C#Cc2ccc(C(C)(C)C)cc2)cc(F)c1NS(C)(=O)=O	155 to 157 °C
C=C(C)OC(=O)N1C(=O)C(C)N(C(=O)OC(=C)C)c2ccncc21 (racemic)	96 to 97 °C
C[C@H](CSC(=O)c1ccccc1)C(=O)N1C(=O)N(Cc2ccccc2)C[C@H]1C(=O)O	145 °C
CCCCN1CC(O)N(c2cc(OC)c(Cl)cc2F)C1=S (stereo unspecified)	137 to 138 °C

SMILES	melting point
CN1CCc2c(Cl)ccc3c4c(n(c23)CC1)CCCCC4	132 to 134 °C
Cc1cc(C(=O)Nc2ccc(OCC(C)(C)C)c(C#N)c2)nn1-c1ccc(F)cc1	146 to 147 °C
COc1cc(-n2cccn2)ccc1-n1cc(OC)c(=O)c(-c2ccnn2-c2cccc(Cl)c2)n1	167 to 168 °C
N=C(N)c1cc2cc(F)c(F)cc2o1	178 °C
CCc1ccc(CSc2nc(C)cc(=O)[nH]2)nc1	127 to 128 °C
O=Cc1ccc2c(c1)C(=O)OC2	134 °C
O=C(NCc1ccc2c(Br)c(OC(Cc3ccccc3)C(=O)O)ccc2c1)c1ccc(Oc2cc(Cl)cc(Cl)c2)o1 (stereo unspecified)	86 to 100 °C
COc1nc(N)c(Cl)cc1C(=O)CCC1CCN(CC(O)C(C)(C)C)CC1 (stereo unspecified)	134 °C
CCOC(=O)c1cc(=O)c2ccc(N)cc2o1	192 to 194 °C
COC(=O)c1c(Sc2ccc(OC)cc2)nc(C)n1Cc1cc2c(cc1Cl)OCO2	152 °C
CC(C)c1ccc(OC(Cc2ccc(OCCNC(=O)c3ccc(-c4ccccc4)cc3)cc2)C(=O)O)cc1 (stereo unspecified)	172 to 173 °C
Cc1c(C)c2c(c(C)c1N)CC(C)(Cc1ccccc1)O2 (stereo unspecified)	68 to 69 °C
COc1ccc2c(c1)C(O)(CC#N)C(C)(C)CC2 (stereo unspecified)	107 to 108 °C
CNS(=O)(=O)Cc1ccc(NC(=N)c2ccc3[nH]cc(CCN)c3c2)cc1	63 to 65 °C
Cn1c(=O)c(-c2c(Cl)cccc2Cl)cc2cnc(NC3CCCCC3)nc21	242 to 244 °C
CCOc1nc(N2CCNCC2)nc(N2CCSCC2)c1[N+](=O)[O-]	166 to 168 °C
CCCCc1nc2ccccn2c(=O)c1-c1ccc(N)cc1	95 to 97 °C
ClCCCCOc1ccc(OCCCCCl)cc1	158 to 159 °C
O=C(O)CCCC(=O)ON1C(=O)CCC1=O	81 to 83 °C
COc1nc(N)nc(OC(F)(F)F)n1	69 to 91 °C
C[C@@H](NC(=O)c1ccc(-c2csnn2)cc1)[C@](O)(Cn1cncn1)c1ccc(F)cc1F	196 to 198 °C
C=CCn1c2c(ccc1=O)C(NCCc1ccccc1)CCC2 (stereo unspecified)	60 to 62 °C
COc1cc(OCCOC(C)C)cc2nc(-c3cc(C)nc(C)c3)[nH]c(=O)c12	188 to 189 °C
